Source: US20240279207A1, “SUBSTITUTED ACYL SULFONAMIDES FOR TREATING CANCER” (The Broad Institute, Inc., priority 2020, published 2024)
Where two headings read alike, the source gives them in different places.

How the values were obtained:
LCLC97TM1 = LCLC97TM1 proliferation assay; assay type: cell-based; settings: read-out: LCLC97TM1 proliferation assay, EC50 [M] (arithmetic mean)
ZR-75-1 cells = assay: ZR-75-1 proliferation assay; assay type: cell-based; settings: Alamar Blue, read-out: ZR75-1 proliferation assay, EC50 [M] (arithmetic mean)
From the text: (§1) For compound characterization cell survival assays were routinely run in two cell lines. ZR-75-1 is a breast carcinoma cell line containing a focal KAT6A amplification and high KAT6A protein expression. Proliferation of this cell line is inhibited upon treatment with KAT6A inhibitors. As a negative control cell line MDA-MB-436 were used. These cells carry a […] deletion of the KAT6A gene, have a low KAT6A protein expression and are not growth inhibited upon treatment with KAT6A inhibitors.
(§2) For measurements cell lines were plated at the below indicated concentration per […] in 96-well plates in a humidified incubator at 37° C. and 5% CO2.
ZR-75-1 (ATCC, CRL-1500; breast carcinoma); 3000 cells per well; culture medium: RPMI 1640 (Biochrom #FG 1215) medium containing 2.5% FBS (Biochrom #S0615).
(§3) Each sample was prepared as triplicate and rim wells were excluded. Plates were incubated at 37° C. and 5% CO2 for 144 h. Cell viability was measured by adding 10 μL of Alamar Blue Reagent (Invitrogen #DAL 1100) and plates were incubated for 2 h at 37° C. and 5% CO2. Fluorescence was measured at 590 nm wavelength with a Tecan Spark or Victor X3 MTP-Reader (PerkinElmer).

[1] = test system: ESR1 transcription in MVLN cells; assay: MVLN reporter assay: repression of ESR1 transcription (luciferase signal); assay type: cell-based; settings: luciferase signal after 24 h, read-out: MVLN reporter assay, IC50 [M] (arithmetic mean)
Procedure, shortened: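 MVLN cells, expressing ER and stably carrying a vitellogenin A2 ERE-luciferase reporter, treated with compound in duplicate; luciferase read after 24 h with Steadylite plus. Cell density checked in parallel by Alamar Blue fluorescence (530/590 nm, 2 h) before the luciferase read.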

[2] = molecular target: T1, Recombinant human His-tagged Kat6a protein (amino acids 194-810) (Homo sapiens, UniProt Q92794); assay: Kat6a activity assay (TR-FRET, acetylation of Histone-H4-derived peptide); assay type: biochemical; settings: 60 mins at 22° C., 220 nM H4 peptide, 600 nM Acetyl Coenzyme A, read-out: KAT6A - DPF/HAT domain IC50 [mol/l] (arithmetic mean)
T1 construct: Kat6a protein (amino acids 194-810); His
T1 sequence (Q92794 194-810): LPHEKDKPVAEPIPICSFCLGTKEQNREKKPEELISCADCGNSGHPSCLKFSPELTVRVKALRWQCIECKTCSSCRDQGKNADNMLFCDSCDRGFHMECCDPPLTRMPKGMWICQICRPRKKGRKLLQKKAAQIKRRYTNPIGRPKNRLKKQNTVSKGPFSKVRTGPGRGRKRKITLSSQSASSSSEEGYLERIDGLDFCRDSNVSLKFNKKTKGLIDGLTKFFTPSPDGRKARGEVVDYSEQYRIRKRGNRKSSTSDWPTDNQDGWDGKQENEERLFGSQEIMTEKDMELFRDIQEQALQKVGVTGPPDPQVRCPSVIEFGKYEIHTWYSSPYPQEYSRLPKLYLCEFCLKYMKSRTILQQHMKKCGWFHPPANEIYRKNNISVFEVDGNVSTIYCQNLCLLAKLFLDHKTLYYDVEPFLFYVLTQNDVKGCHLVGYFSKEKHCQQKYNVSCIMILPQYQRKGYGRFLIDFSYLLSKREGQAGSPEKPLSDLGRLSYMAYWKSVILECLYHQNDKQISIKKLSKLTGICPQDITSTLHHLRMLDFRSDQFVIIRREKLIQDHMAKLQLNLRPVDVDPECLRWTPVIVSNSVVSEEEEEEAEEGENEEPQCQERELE

MDA-MB-436 cells = assay: MDA-MB-436 proliferation assay (negative control cell line); assay type: cell-based; settings: 144 h, Alamar Blue, read-out: MDA-MB-436 proliferation assay, EC50 [M] (arithmetic mean)
From the text: as §1, §2
MDA-MB-436 (CLS, 300278; breast adenocarcinoma); 3000 cells per well; culture medium: DMEM/Ham's F12 (Biochrom #FG 4815) medium containing 2.5% FBS (Biochrom #S0615).
as §3

[3] = Homo sapiens, LCLC-97TM1, LCLC97TM1

Structure (SMILES) | IC50 ([1]; Homo sapiens, MVLN, 24 h) | IC50 [2] | EC50 (MDA-MB-436 cells; Homo sapiens) | IC50 [1] | EC50 (MDA-MB-436 cells) | EC50 (LCLC97TM1; [3]) | EC50 (ZR-75-1 cells; Homo sapiens, ZR-75-1, 144 h) | EC50 (LCLC97TM1; LCLC97TM1) | EC50 (ZR-75-1 cells; 144 h)
Cc1ccc2cccc(S(=O)(=O)NC(=O)c3cc4c(F)cc(N5CCC5C(F)F)cc4o3)c2n1 (racemic) [Example 160, 6-[2-(Difluoromethyl)azetidin-1-yl]-4-fluoro-N-(2-methylquinoline-8-sulfonyl)-1-benzofuran-2-carboxamide (rac)] | 1.45e-06 M | 203 nM | > 2e-05 M |  |  | > 2e-05 M | 4.34e-06 M |  | 
Cc1ccc2cccc(S(=O)(=O)NC(=O)c3cc4c(F)cc(N5CCC5C(C)(C)O)cc4o3)c2n1 (racemic) [Example 161, 4-Fluoro-6-[2-(1-hydroxy-1-methyl-ethyl)azetidin-1-yl]-N-[(2-methyl-8-quinolyl)sulfonyl]benzofuran-2-carboxamide (rac)] | 5.92e-06 M | 1090 nM | > 2e-05 M |  |  | > 2e-05 M | 7.56e-06 M |  | 
CCOc1ccccc1S(=O)(=O)NC(=O)c1cc2c(F)cc(N3CCC3C(C)(C)O)cc2o1 (racemic) [Example 162, N-(2-ethoxybenzene-1-sulfonyl)-4-fluoro-6-[2-(2-hydroxypropan-2-yl)azetidin-1-yl]-1-benzofuran-2-carboxamide (rac)] | 1.95e-05 M | 1990 nM | > 2e-05 M |  |  | > 2e-05 M | > 2e-05 M |  | 
CCOc1ccccc1S(=O)(=O)NC(=O)c1cc2c(F)cc(N3CCC3C(F)F)cc2o1 (racemic) [Example 163, 6-[2-(Difluoromethyl)azetidin-1-yl]-N-(2-ethoxybenzene-1-sulfonyl)-4-fluoro-1-benzofuran-2-carboxamide (rac)] | 3.67e-06 M | 862 nM | > 2e-05 M |  |  | > 2e-05 M | 6.67e-06 M |  | 
COc1ccc(N2CCCC2c2ccccc2)cc1S(=O)(=O)NC(=O)c1cc2c(F)cc(N3CCC3)cc2o1 (racemic) [Example 201, 6-(Azetidin-1-yl)-4-fluoro-N-[2-methoxy-5-(2-phenylpyrrolidin-1-yl)benzene-1-sulfonyl]-1-benzofuran-2-carboxamide (rac)] | 6.48e-07 M | 0.814 nM | > 2e-05 M |  |  | 2.81e-06 M | 3.26e-06 M |  | 
CC(Oc1ccccc1S(=O)(=O)NC(=O)c1cc2c(F)cc(N3CCC3)cc2o1)C(F)(F)F (single isomer, unassigned) [Example 14] | 6.93e-08 M | 28.1 nM | > 2e-05 M |  |  |  |  | 1.39e-06 M | 9.93e-08 M
CC(Oc1ccccc1S(=O)(=O)NC(=O)c1cc2c(F)cc(N3CCC3)cc2o1)C(F)(F)F (single isomer, unassigned) [Example 15] |  | 47.2 nM |  | 7.55e-08 M | > 2e-05 M |  |  | 6.28e-07 M | 2.46e-07 M
CCc1ccc(OC2CCCC2)c(S(=O)(=O)NC(=O)c2cc3c(F)cc(N4CCC4)cc3o2)c1 [Example 3, 6-(Azetidin-1-yl)-N-[2-(cyclopentyloxy)-5-ethylbenzene-1-sulfonyl]-4-fluoro-1-benzofuran-2-carboxamide] | 5.25e-08 M | 8.1 nM | > 2e-05 M |  |  | 1.11e-06 M | 2.32e-07 M |  | 
O=C(NS(=O)(=O)c1ccccc1-c1ccccc1)c1cc2c(F)cc(N3CCC3)cc2o1 [Example 20, Sodium {[6-(azetidin-1-yl)-4-fluoro-1-benzofuran-2-yl]carbonyl}([biphenyl]-2-ylsulfonyl)azanide] |  | 34.2 nM |  | 3.03e-07 M | > 2e-05 M | 1.42e-06 M | 2.87e-07 M |  | 
CCOc1ccccc1S(=O)(=O)NC(=O)c1cc2ccc(N3CC(C)(F)C3)cc2o1 [Example 116, N-(2-Ethoxybenzene-1-sulfonyl)-6-(3-fluoro-3-methylazetidin-1-yl)-1-benzofuran-2-carboxamide] | 1.45e-06 M | 2290 nM |  |  |  | > 2e-05 M | 5.72e-06 M |  | 

Continued, in another order:

IC50 ([1]; Homo sapiens, MVLN, 24 h) | IC50 [2] | EC50 (MDA-MB-436 cells; Homo sapiens) | IC50 [1] | EC50 (MDA-MB-436 cells) | Structure (SMILES) | EC50 (LCLC97TM1; [3]) | EC50 (ZR-75-1 cells; Homo sapiens, ZR-75-1, 144 h) | EC50 (LCLC97TM1; LCLC97TM1) | EC50 (ZR-75-1 cells; 144 h)
6.3e-08 M | 8.72 nM | > 2e-05 M |  |  | CCC(C)Oc1ccc(C)cc1S(=O)(=O)NC(=O)c1cc2c(F)cc(N3CCC3)cc2o1 (stereo not shown) [Example 4, 6-(Azetidin-1-yl)-N-(2-{[butan-2-yl]oxy}-5-methylbenzene-1-sulfonyl)-4-fluoro-1-benzofuran-2-carboxamide] | 6.42e-07 M | 1.14e-07 M |  | 
6.43e-08 M | 1.42 nM | > 2e-05 M |  |  | O=C(NS(=O)(=O)c1c(OCc2ccccc2)cccc1OC1CCC1)c1cc2c(F)cc(N3CCC3)cc2o1 [Example 5, 6-(Azetidin-1-yl)-N-[2-(benzyloxy)-6-(cyclobutyloxy)benzene-1-sulfonyl]-4-fluoro-1-benzofuran-2-carboxamide] | 9.88e-06 M | 3.57e-06 M |  | 
7.45e-08 M | 34.9 nM | > 2e-05 M |  |  | CCOc1ccc(C)cc1S(=O)(=O)NC(=O)c1cc2c(F)cc(N3CCC3)cc2o1 [Example 6, 6-(Azetidin-1-yl)-N-(2-ethoxy-5-methylbenzene-1-sulfonyl)-4-fluoro-1-benzofuran-2-carboxamide] | 3.12e-07 M | 3.28e-08 M |  | 
1.23e-07 M | 4.15 nM | > 2e-05 M |  |  | CCOc1cccc(OCc2ccccc2)c1S(=O)(=O)NC(=O)c1cc2c(F)cc(N3CCC3)cc2o1 [Example 7, 6-(Azetidin-1-yl)-N-[2-(benzyloxy)-6-ethoxybenzene-1-sulfonyl]-4-fluoro-1-benzofuran-2-carboxamide] | 2.92e-07 M | 3.7e-07 M |  | 
1.36e-07 M | 7.12 nM | > 2e-05 M |  |  | CCCOc1cccc(OCC)c1S(=O)(=O)NC(=O)c1cc2c(F)cc(N3CCC3)cc2o1 [Example 10, 6-(Azetidin-1-yl)-N-(2-ethoxy-6-propoxybenzene-1-sulfonyl)-4-fluoro-1-benzofuran-2-carboxamide] | 6.61e-07 M | 2.21e-07 M |  | 
1.76e-07 M | 4.47 nM | > 2e-05 M |  |  | CCCOc1cccc(OCCC)c1S(=O)(=O)NC(=O)c1cc2c(F)cc(N3CCC3)cc2o1 [Example 17, 6-(Azetidin-1-yl)-N-(2,6-dipropoxybenzene-1-sulfonyl)-4-fluoro-1-benzofuran-2-carboxamide] | 8.49e-07 M | 2.76e-07 M |  | 
4.95e-09 M | 1.41 nM | > 2e-05 M |  |  | CCOc1ccc(C(C)(C)C)cc1S(=O)(=O)NC(=O)c1cc2c(F)cc(N3CCC3)cc2o1 [Example 78, 6-(azetidin-1-yl)-N-(5-tert-butyl-2-ethoxybenzene-1-sulfonyl)-4-fluoro-1-benzofuran-2-carboxamide] | 5.75e-08 M | 5.87e-08 M |  | 
3.54e-09 M |  | > 2e-05 M |  |  | COc1ccc(C(C)(C)C)cc1S(=O)(=O)NC(=O)c1cc2c(F)cc(N3CCC3)cc2o1 [Example 127, 6-(Azetidin-1-yl)-N-(5-tert-butyl-2-methoxybenzene-1-sulfonyl)-4-fluoro-1-benzofuran-2-carboxamide] | 5.73e-08 M | 2.55e-08 M |  | 
3.86e-06 M | 1850 nM | > 2e-05 M |  |  | CCOc1ccccc1S(=O)(=O)NC(=O)c1cc2c(F)cc(N3CCC3(C)C)cc2o1 [Example 219, 6-(2,2-Dimethylazetidin-1-yl)-N-(2-ethoxyphenyl)sulfonyl-4-fluoro-benzofuran-2-carboxamide] |  |  |  | 
